According to publication PMC10166855, “Tau activation of microglial cGAS–IFN reduces MEF2C-mediated cognitive resilience” (Nature neuroscience, 2023):

Target: human cGAS (cyclic GMP–AMP synthase) (Homo sapiens, UniProt Q8N884)
Test: cell-free cGAS activity assay, ATP depletion by Kinase-Glo luminescence
Assay type: biochemical
Description: cell-free cGAS activity assay, ATP depletion by Kinase-Glo luminescence on human cGAS (cyclic GMP–AMP synthase) | Dose-dependent inhibition of cGAS activity (as measured in a) in response to HT-DNA.

Chain of human cGAS (cyclic GMP–AMP synthase) (Q8N884 whole entry): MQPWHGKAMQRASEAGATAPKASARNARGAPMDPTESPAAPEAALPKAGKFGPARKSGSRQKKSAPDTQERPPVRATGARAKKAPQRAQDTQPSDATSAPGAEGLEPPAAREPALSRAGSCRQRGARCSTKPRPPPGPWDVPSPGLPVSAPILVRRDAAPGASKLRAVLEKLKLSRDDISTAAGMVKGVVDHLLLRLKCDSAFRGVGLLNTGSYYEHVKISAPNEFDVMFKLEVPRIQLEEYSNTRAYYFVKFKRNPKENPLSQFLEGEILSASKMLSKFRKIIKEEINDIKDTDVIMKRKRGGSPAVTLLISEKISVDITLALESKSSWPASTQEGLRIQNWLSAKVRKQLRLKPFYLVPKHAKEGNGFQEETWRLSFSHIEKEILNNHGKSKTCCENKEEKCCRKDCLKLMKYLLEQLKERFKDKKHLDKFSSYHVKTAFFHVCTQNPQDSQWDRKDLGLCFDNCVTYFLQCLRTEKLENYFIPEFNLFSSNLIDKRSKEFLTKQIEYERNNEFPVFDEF

- IC50: 81.2 nM
Substance: TDI-8246
